# Starred links: 1 amine or outer side, 2 acyl side, 3 side chain; linkers in the order of their positions; H or OH if unused. Positions of bridges follow the written chain, without caps; N, C: chain ends. Non-standard residues stand in square brackets, D forms with d. Residues, ends and D or L forms follow the SMILES beside them. Trp(7-aza) = N[C@@H](Cc1c[nH]c2ncccc12)C(=O)O; mXylylene = c1cc(C[*:1])cc(C[*:2])c1; Phg = N[C@H](C(=O)O)c1ccccc1; NMeS = CN[C@@H](CO)C(=O)O; Nva = CCC[C@H](N)C(=O)O
# How the values were obtained:
# C5 [1] = molecular target: T1, C5 (Homo sapiens, UniProt P01031); test: Human hemolysis assay (RBC lysis assay using complete human sera); assay type: cell-based; parameters: with complete human sera (Complement Technology, Tyler Tex.) and polypeptides; tissue Complement Technology, Tyler Tex; host or cells: complete human serum; details: inhibition of lysis of antibody-sensitized sheep erythrocytes, complete human sera
# T1 sequence (P01031 19-1676): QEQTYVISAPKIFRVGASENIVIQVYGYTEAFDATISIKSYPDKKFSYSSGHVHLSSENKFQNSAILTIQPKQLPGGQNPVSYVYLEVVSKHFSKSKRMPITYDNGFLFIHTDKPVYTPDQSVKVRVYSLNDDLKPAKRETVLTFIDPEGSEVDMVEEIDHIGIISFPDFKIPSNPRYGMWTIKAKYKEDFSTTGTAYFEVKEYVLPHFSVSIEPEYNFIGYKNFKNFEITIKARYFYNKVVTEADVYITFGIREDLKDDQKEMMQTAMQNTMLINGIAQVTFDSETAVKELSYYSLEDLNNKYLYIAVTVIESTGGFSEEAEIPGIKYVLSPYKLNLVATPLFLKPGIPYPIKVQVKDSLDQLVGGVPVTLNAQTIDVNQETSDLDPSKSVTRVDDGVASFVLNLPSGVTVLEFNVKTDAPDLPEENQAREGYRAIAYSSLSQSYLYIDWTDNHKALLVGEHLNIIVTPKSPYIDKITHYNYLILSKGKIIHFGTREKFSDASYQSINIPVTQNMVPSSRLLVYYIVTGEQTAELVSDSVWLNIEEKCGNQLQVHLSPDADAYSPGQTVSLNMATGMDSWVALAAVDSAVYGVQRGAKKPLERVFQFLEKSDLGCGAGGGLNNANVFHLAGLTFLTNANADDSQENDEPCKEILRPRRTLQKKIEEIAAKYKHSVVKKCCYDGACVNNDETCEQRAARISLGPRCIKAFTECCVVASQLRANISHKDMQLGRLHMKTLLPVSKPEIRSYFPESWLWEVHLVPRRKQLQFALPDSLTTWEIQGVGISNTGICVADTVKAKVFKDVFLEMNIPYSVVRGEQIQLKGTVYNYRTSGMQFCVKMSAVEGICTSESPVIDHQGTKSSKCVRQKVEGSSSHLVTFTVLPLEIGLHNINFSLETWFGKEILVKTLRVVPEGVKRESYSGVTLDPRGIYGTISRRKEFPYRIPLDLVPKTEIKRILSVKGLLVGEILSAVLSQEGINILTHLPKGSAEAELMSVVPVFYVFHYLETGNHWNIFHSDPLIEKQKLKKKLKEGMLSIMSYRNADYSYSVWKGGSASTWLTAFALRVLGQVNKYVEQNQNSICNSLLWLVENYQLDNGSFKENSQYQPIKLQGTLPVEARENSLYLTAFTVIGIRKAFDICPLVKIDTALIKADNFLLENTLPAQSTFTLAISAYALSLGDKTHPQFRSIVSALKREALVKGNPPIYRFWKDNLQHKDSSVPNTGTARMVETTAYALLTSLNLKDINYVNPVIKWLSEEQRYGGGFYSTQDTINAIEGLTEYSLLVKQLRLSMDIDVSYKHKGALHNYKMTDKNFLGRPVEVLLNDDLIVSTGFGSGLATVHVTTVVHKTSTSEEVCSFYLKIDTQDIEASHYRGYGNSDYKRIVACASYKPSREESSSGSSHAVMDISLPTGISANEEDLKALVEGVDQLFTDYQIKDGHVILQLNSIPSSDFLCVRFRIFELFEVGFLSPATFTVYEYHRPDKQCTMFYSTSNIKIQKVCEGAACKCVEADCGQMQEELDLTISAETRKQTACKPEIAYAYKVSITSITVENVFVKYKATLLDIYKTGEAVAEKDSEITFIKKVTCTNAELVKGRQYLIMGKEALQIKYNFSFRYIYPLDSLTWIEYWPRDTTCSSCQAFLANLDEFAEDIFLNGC
# [2] = tested on: membrane attack complex (MAC); test: Membrane attack complex (MAC) EIA on supernatant from human RBC hemolysis assay; assay type: biochemical; details: hemolysis assay supernatant diluted 1:5; read-out: IC50, inhibition of formation of the MAC
# Description: Supernatant from the hemolysis assay was diluted 1:5 and assayed for MAC levels.
# C5 inhibitory activity was assessed by enzyme immunoassay (EIA). Inhibition of the production of C5a and the membrane attack complex (MAC) were measured by MicroVue EIA kits (Quidel Corporation, San Diego, Calif.).
# C5a = C5a EIA on supernatant from human RBC hemolysis assay; assay type: biochemical; details: hemolysis assay supernatant diluted 1:50; read-out: IC50, inhibition of formation of C5a
# Description: Levels of C5a correlate with complement activity and are therefore an indicator of the ability of the compounds tested to inhibit complement activity. Supernatant from the hemolysis assay was diluted 1:50 and assayed for C5a levels. […] As used herein, the term “IC50” refers to the half maximal inhibitory concentration, a value used to indicate the amount of the inhibitor needed to reduce a given reaction or process by half.
# Inhibition of the production of C5a and the membrane attack complex (MAC) were measured by MicroVue EIA kits (Quidel Corporation, San Diego, Calif.).
# C5 [3] = molecular target: T1, C5; test: Fluorescence polarization saturation binding of probe R3076 to C5; parameters: purchased Complement Technology, Tyler, Tex; details: read-out: equilibrium dissociation constant (KD)
# Description: FP was used for screening competitive polypeptide inhibitors of the C5 protein. […] The BODIPY-TMR dye attached to the C-terminal lysine of the protein and the subsequent labeled probe was purified by HPLC.
# Polarization was measured over time, until binding reached equilibrium. KD was determined using Graphpad Prism (using “Saturating Binding Curves, One Site—Specific Binding With Hill Slope” as the curve fit to determine KD). […] Based on this information, 25 nM and 50 nM concentrations for R3076 (SEQ ID NO: 40) and C5 protein, respectively, were chosen for use in the competition assay. These concentrations represented the approximate level of protein necessary for 95% probe binding to C5 protein.
# [4] = cynomolgus monkey, single 3 mg/kg IV
# primate C5 protein [5] = test: Ex vivo hemolysis assay on plasma samples from the cynomolgus PK study; assay type: in vivo, cynomolgus monkey
# Description: Also shown are changes in hemolytic activity (squares) at the same time points.
# in vivo = details: male, cynomolgus monkey, iv, 3 mg/kg
# primate C5 protein [6] = test: Hemolysis assay with exogenous compound added to normal cynomolgus plasma; assay type: cell-based, cynomolgus monkey
# [7] = Pharmacokinetic studies in rat (IV and SC); details: male rats, SC 30 mg/kg, combined plasma concentrations of R3152 and R3201
# Description: Left: Male Sprague-Dawley rats (n=3) were injected intravenously at a single 2 mg/kg dose. Blood samples were collected at indicated time points, processed into plasma, and analyzed for the indicated compound by LC-MS. […] […] Blood samples were collected at indicated time points, processed into plasma, and analyzed for the indicated compound by LC-MS.
# Blood samples were collected at indicated time points, processed into plasma, and analyzed for the indicated compound by LC-MS. […] Blood samples were collected at indicated time points, processed into plasma, and analyzed for the indicated compound by LC-MS.
# rat C5 = molecular target: T2, rat C5 (Rattus norvegicus, UniProt P08650); test: Ex vivo hemolysis assays in the rat study
# T2 construct: from tissue; host or cells: plasma of dosed male rats
# T2 sequence (P08650 19-1681): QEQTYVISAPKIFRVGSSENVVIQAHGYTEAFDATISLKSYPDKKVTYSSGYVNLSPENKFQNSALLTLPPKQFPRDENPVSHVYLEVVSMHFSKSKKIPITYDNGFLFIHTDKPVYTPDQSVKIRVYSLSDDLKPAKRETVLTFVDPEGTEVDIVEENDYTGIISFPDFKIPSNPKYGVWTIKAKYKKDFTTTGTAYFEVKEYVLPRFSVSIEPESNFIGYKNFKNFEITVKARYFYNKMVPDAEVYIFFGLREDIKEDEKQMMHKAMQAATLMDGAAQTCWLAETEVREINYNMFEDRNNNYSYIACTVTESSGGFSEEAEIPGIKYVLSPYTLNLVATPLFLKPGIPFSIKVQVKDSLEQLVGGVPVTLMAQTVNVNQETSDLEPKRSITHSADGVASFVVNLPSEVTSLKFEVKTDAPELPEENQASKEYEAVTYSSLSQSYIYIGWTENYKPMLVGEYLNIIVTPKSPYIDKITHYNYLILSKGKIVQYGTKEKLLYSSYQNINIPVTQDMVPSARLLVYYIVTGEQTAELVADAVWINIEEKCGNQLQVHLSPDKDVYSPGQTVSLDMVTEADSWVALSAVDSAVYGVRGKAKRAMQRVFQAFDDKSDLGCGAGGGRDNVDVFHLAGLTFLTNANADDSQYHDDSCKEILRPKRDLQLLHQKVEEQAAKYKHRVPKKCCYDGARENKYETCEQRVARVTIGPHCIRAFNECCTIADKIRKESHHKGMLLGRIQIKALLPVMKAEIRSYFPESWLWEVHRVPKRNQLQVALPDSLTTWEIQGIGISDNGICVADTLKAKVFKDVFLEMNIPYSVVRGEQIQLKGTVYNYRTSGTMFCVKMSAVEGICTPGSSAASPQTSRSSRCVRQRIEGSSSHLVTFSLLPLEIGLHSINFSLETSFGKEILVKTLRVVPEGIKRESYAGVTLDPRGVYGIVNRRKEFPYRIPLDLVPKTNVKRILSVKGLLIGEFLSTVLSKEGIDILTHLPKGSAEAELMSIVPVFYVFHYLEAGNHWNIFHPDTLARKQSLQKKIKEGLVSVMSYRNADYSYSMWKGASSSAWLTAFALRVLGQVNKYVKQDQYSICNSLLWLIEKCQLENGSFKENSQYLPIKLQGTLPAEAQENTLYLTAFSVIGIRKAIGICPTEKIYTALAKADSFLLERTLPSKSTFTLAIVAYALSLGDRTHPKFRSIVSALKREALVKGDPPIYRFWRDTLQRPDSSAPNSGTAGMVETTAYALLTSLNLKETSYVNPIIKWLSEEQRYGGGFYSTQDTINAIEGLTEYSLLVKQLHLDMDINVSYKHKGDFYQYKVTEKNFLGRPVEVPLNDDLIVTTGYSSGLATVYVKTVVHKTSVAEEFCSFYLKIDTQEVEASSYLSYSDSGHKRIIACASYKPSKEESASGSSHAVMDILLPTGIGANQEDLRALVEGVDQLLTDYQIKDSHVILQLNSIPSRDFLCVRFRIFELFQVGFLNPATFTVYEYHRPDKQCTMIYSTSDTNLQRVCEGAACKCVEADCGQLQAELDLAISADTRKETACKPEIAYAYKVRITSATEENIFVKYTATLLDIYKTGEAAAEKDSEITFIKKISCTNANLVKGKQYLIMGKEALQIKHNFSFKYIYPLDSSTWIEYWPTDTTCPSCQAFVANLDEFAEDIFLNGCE
# C5 [8] = molecular target: T1, C5; test: Alternative human hemolysis assay using C5 depleted sera and purified human C5; assay type: cell-based; parameters: purchased Complement Technology, Tyler, Tex; details: antibody-sensitized sheep erythrocytes, 1.5% human C5 depleted sera and 0.5 nM purified human C5
structure (smiles),measurement,setting,value
"CCC[C@H](NC(=O)[C@@H]1CCCN1C(=O)[C@H](CCC)NC(=O)[C@@H]1CSCc2cccc(c2)CSC[C@H](NC(=O)[C@H](CCC)NC(C)=O)C(=O)N[C@@H](c2ccccc2)C(=O)N[C@@H]([C@@H](C)O)C(=O)N[C@@H](Cc2c[nH]c3ncccc23)C(=O)N[C@@H](CCC(=O)O)C(=O)N[C@@H](Cc2ccc(O)cc2)C(=O)N(C)[C@@H](CO)C(=O)N[C@@H](Cc2c[nH]cn2)C(=O)N1)C(N)=O [Compound R3008, [mXylyl(2,10)]Ac-Nvl-C-Phg-T-azaTrp-E-Y-(N-Me)S-H-C-Nvl-P-Nvl-NH2] (Ac-[Nva]C[Phg]T[Trp(7-aza)]EY[NMeS]HC[Nva]P[Nva]-NH2; linker 2-10 via mXylylene)",IC50,C5 [1],97 nM
same,IC50,[2],33 nM
same,IC50,C5a,54.5 nM
"CCC[C@H](NC(C)=O)C(=O)N[C@@H](CCC)C(=O)N[C@@H](Cc1ccc(O)cc1)C(=O)N[C@@H](CCC(=O)O)C(=O)N[C@@H](CC(N)=O)C(=O)N[C@H](C(=O)N[C@@H](Cc1ccc(O)cc1)C(=O)N[C@@H](Cc1c[nH]c2ncccc12)C(=O)N[C@@H](CCC(=O)O)C(=O)N[C@@H](Cc1ccc(O)cc1)C(=O)N1CCC[C@H]1C(=O)N[C@H](C(=O)N[C@@H](CCC)C(=O)N[C@@H](CCCCNC(=O)CCCCCNC(=O)CCC1=C(C)C2=Cc3ccc(-c4ccc(OC)cc4)n3[B-](F)(F)[N+]2=C1C)C(N)=O)C1CCCCC1)C(C)(C)C [Compound R3076, Ac-Nvl-Nvl-Y-E-N-Tbg-Y-azaTrp-E-Y-P-Chg-Nvl-K-(BODIPY-TMR-X) NH2]",IC50,C5 [1],297 nM
same,Kd,C5 [3],8.07 nM
"CCC[C@H](NC(=O)[C@@H](NC(=O)[C@@H]1CCCN1C(=O)[C@H](Cc1ccc(O)cc1)NC(=O)[C@H](CCC(=O)O)NC(=O)[C@H](Cc1c[nH]c2ncccc12)NC(=O)[C@H](Cc1ccc(O)cc1)NC(=O)[C@@H](NC(=O)[C@H](CC(=O)O)NC(=O)[C@@H]1CSCc2cccc(c2)CSC[C@H](NC(C)=O)C(=O)N[C@@H](C(C)C)C(=O)N[C@@H](CCC(=O)O)C(=O)N[C@@H](CCCNC(=N)N)C(=O)N[C@@H](Cc2ccccc2)C(=O)N1)C(C)(C)C)C1CCCCC1)C(N)=O [Compound R3152, [mXylyl(1,6)]Ac-C-V-E-R-F-C-D-Tbg-Y-azaTrp-E-Y-P-Chg-Nvl-NH2]",initial distribution phase,[4],< 1 h
same,time for which plasma drug levels were detectable,[4],up to 48 hours
same,binding to primate C5 protein (in words),"primate C5 protein [5]; cynomolgus monkey, in vivo",binds with high affinity
same,time after dosing at which hemolytic activity returned to normal levels,"primate C5 protein [5]; cynomolgus monkey, single 3 mg/kg IV",48 h
same,plasma concentration with clear inhibition of complement-mediated hemolysis,"primate C5 protein [5]; cynomolgus plasma diluted 1:100, activated sheep red blood cells",> 200 ng/mL
same,AUC(0-inf),in vivo,23300 ± 2120 ng·h/mL
same,Vd,in vivo,1.49 ± 0.152 L/kg
same,clearance,in vivo,2.15 mL/min/kg
same,half-life,in vivo,10.9 ± 0.8 h
same,level at 48 h,in vivo,< 100 ng/mL
same,IC50,primate C5 protein [6],2 to 20 ng/mL
same,"bioavailability of dose, based on AUC",[7],approximately 65%
same,inhibitory activity in ex vivo hemolysis assays (in words),rat C5,very little inhibitory activity
same,binding to rat C5 (in words),rat C5; in vivo,do not bind
"CCCCCCCCCCCCCCCC(=O)NCCCC[C@H](NC(=O)[C@@H](NC(=O)[C@@H]1CCCN1C(=O)[C@H](Cc1ccc(O)cc1)NC(=O)[C@H](CCC(=O)O)NC(=O)[C@H](Cc1c[nH]c2ncccc12)NC(=O)[C@H](Cc1ccc(O)cc1)NC(=O)[C@@H](NC(=O)[C@H](CC(=O)O)N(C)C(=O)[C@@H]1CC(=O)NCCCC[C@H](NC(C)=O)C(=O)N[C@@H](C(C)C)C(=O)N[C@@H](CCC(=O)O)C(=O)N[C@@H](CCCNC(=N)N)C(=O)N[C@@H](Cc2ccccc2)C(=O)N1)C(C)(C)C)C1CCCCC1)C(N)=O [Compound R3194, [cyclo(1,6)]Ac-K-V-E-R-F-D-(N-Me)D-Tbg-Y-azaTrp-E-Y-P-Chg-(Lys-C16)-NH2]",IC50,C5 [8],15.5 nM
"CCCCCCCCCCCCCCCC(=O)NCCCC[C@H](NC(=O)[C@@H](NC(=O)[C@@H]1CCCN1C(=O)[C@H](Cc1ccc(O)cc1)NC(=O)[C@H](CCC(=O)O)NC(=O)[C@H](Cc1c[nH]c2ncccc12)NC(=O)[C@H](Cc1ccc(O)cc1)NC(=O)[C@@H](NC(=O)[C@H](CC(=O)O)N(C)C(=O)[C@@H]1CSSCCC(=O)N[C@@H](C(C)C)C(=O)N[C@@H](CCC(=O)O)C(=O)N[C@@H](CCCNC(=N)N)C(=O)N[C@@H](Cc2ccccc2)C(=O)N1)C(C)(C)C)C1CCCCC1)C(=O)O [Compound R3198, [cyclo(1,6)](desamino)C-V-E-R-F-C-(N-Me)D-Tbg-Y-azaTrp-E-Y-P-Chg-(Lys-C16)]",IC50,C5 [8],142 nM

# Source: patent US10208089B2, “Modulation of complement activity” (priority 2014, dated 2019)
